Bridge positions count the residues as written; N and C are the ends. Square brackets hold non-standard residues; d marks the D form. Peptide text beside a SMILES is read from it. * marks the point of attachment. ξ: configuration not given here. Hyp = O=C(O)[C@@H]1C[C@@H](O)CN1; Piperazinyl(4-Me) = CN1CCN(*)CC1; ξW = NC(Cc1c[nH]c2ccccc12)C(=O)O; NH(3-picolyl) = c1cncc(CN*)c1; NMeNle = CCCC[C@H](NC)C(=O)O; NH(CH2)3NMe2 = CN(C)CCCN*; Morpholide = C1CN(*)CCO1; NMeA = CN[C@@H](C)C(=O)O; Dap = NC[C@H](N)C(=O)O; NH(propargyl) = C#CCN*; X2 = c1cn(CCCN*)cn1; NHCH2CH2OH = OCCN*; NHcBu = C1CC(N*)C1; NHAllyl = C=CCN*; NHcPr = C1CC1N*; Sar = CNCC(=O)O; NHBu = CCCCN*
Target: T1, PD-1-Ig binding to PD-L1-TVMV-His (PD-L1-His) (Homo sapiens, UniProt Q9NZQ7)
T1 construct: hPDL1(19-239)-TVMV-His; TVMV protease cleavage site (C); made in house; host or cells: HEK293T
T1 sequence (Q9NZQ7 with tags, fused parts or gaps): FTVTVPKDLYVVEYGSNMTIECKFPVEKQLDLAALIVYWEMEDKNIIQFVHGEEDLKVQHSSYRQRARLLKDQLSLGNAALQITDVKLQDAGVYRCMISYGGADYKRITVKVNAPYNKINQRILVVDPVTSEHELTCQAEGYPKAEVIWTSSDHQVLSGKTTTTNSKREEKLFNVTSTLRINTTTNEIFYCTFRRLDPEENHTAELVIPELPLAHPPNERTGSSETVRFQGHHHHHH
Experiment: PD-1/PD-L1 Homogenous Time-Resolved Fluorescence (HTRF) binding assay
Settings: PD-1-Ig (20 nM)/PD-L1-His (10 nM), range classes
Excerpt: Methods for Testing the Ability of Macrocyclic Peptides to Compete for the Binding of PD-1 to PD-L1 Using Homogenous Time-Resolved Fluorescence (HTRF) Binding Assays
The ability of the macrocyclic peptides of the present disclosure to bind to PD-L1 was investigated using a PD-1/PD-L1 Homogenous Time-Resolved Fluorescence (HTRF) binding assay.
Homogenous Time-Resolved Fluorescence (HTRF) Assays of Binding of Soluble PD-1 to Soluble PD-L1. Soluble PD-1 and soluble PD-L1 refers to proteins with carboxyl-end truncations that remove the transmembrane-spanning regions and are fused to heterologous sequences, specifically the Fc portion of the human immunoglobuling G sequence (Ig) or the hexahistidine epitope tag (His). All binding studies were performed in an HTRF assay buffer consisting of dPBS supplemented with 0.1% (w/v) bovine serum albumin and 0.05% (v/v) Tween-20. For the PD-1-Ig/PD-L1-His binding assay, inhibitors were pre-incubated with PD-L1-His (10 nM final) for 15 m in 4 μl of assay buffer, followed by addition of PD-1-Ig (20 nM final) in 1 μl of assay buffer and further incubation for 15 m. PD-L1 fusion proteins from either human, cynomologous macaques, mouse, or other species were used. HTRF detection was achieved using europium crypate-labeled anti-Ig monoclonal antibody (1 nM final) and allophycocyanin (APC) labeled anti-His monoclonal antibody (20 nM final). Antibodies were diluted in HTRF detection buffer and 5 μl was dispensed on top of binding reaction. The reaction was allowed to equilibrate for 30 minutes and signal (665 nm/620 nm ratio) was obtained using an EnVision fluorometer. Additional binding assays were established between PD-1-Ig/PD-L2-His (20 and 5 nM, respectively), CD80-His/PD-L1-Ig (100 and 10 nM, respectively) and CD80-His/CTLA4-Ig (10 and 5 nM, respectively). Binding/competition studies between biotinylated Compound No. 71 and human PD-L1-His were performed as follows. Macrocyclic peptide inhibitors were pre-incubated with PD-L1-His (10 nM final) for 60 minutes in 4 μl of assay buffer followed by addition of biotinylated Compound No. 71 (0.5 nM final) in 1 μl of assay buffer. Binding was allowed to equilibrate for 30 minutes followed by addition of europium crypated labeled Streptavidin (2.5 pM final) and APC-labeled anti-His (20 nM final) in 5 μl of HTRF buffer. The reaction was allowed to equilibrate for 30 m and signal (665 nm/620 nm ratio) was obtained using an EnVision fluorometer.
Recombinant Proteins. Carboxyl-truncated human PD-1 (amino acids 25-167) with a C-terminal human Ig epitope tag [hPD-1 (25-167)-3S-IG] and human PD-L1 (amino acids 18-239) with a C-terminal His epitope tag [hPD-L1(19-239)-tobacco vein mottling virus protease cleavage site (TVMV)-His] were expressed in HEK293T cells and purified sequentially by recombinant Protein A affinity chromatography and size exclusion chromatography. Human PD-L2-His (Sino Biologicals), CD80-His (Sino Biologicals), CTLA4-Ig (RnD Systems) were all obtained through commercial sources.

Structure (SMILES) | IC50 [nM]
CCCC[C@H]1C(=O)N(C)[C@@H](CCCC)C(=O)N[C@@H](CC(C)C)C(=O)N[C@H](C(=O)NCC(=O)N2CCOCC2)CSCC(=O)N[C@@H](Cc2ccc(O)cc2)C(=O)N(C)[C@@H](C)C(=O)N[C@@H](CC(N)=O)C(=O)N2CCC[C@H]2C(=O)N[C@@H](CN)C(=O)N[C@@H](CC(C)C)C(=O)N2C[C@H](O)C[C@H]2C(=O)N[C@@H](Cc2c[nH]c3ccccc23)C(=O)NCC(=O)N[C@@H](Cc2c[nH]c3ccccc23)C(=O)N1C [Example 13087] ({CH2CO}-Y[NMeA]NP[Dap]L[Hyp]WGW[NMeNle][NMeNle]LCG-Morpholide; thioether N-14) | 10 to 60
CCCC[C@H]1C(=O)N(C)[C@@H](CCCC)C(=O)N[C@@H](CC(C)C)C(=O)N[C@H](C(=O)NCC(=O)N2CCN(C)CC2)CSCC(=O)N[C@@H](Cc2ccc(O)cc2)C(=O)N(C)[C@@H](C)C(=O)N[C@@H](CC(N)=O)C(=O)N2CCC[C@H]2C(=O)N[C@@H](CN)C(=O)N[C@@H](CC(C)C)C(=O)N2C[C@H](O)C[C@H]2C(=O)N[C@@H](Cc2c[nH]c3ccccc23)C(=O)NCC(=O)N[C@@H](Cc2c[nH]c3ccccc23)C(=O)N1C [Example 13089] ({CH2CO}-Y[NMeA]NP[Dap]L[Hyp]WGW[NMeNle][NMeNle]LCG-{Piperazinyl(4-Me)}; thioether N-14) | 10 to 60
CCCC[C@H]1C(=O)N(C)[C@@H](CCCC)C(=O)N[C@@H](CC(C)C)C(=O)N[C@H](C(=O)N(C)CC(N)=O)CSCC(=O)N[C@@H](Cc2ccc(O)cc2)C(=O)N(C)[C@@H](C)C(=O)N[C@@H](CC(N)=O)C(=O)N2CCC[C@H]2C(=O)N[C@@H](CN)C(=O)N[C@@H](CC(C)C)C(=O)N2C[C@H](O)C[C@H]2C(=O)N[C@@H](Cc2c[nH]c3ccccc23)C(=O)NCC(=O)N[C@@H](Cc2c[nH]c3ccccc23)C(=O)N1C [Example 13090] ({CH2CO}-Y[NMeA]NP[Dap]L[Hyp]WGW[NMeNle][NMeNle]LC[Sar]-NH2; thioether N-14) | 4 to 9.9
CCCC[C@H]1C(=O)N(C)[C@@H](CCCC)C(=O)N[C@@H](CC(C)C)C(=O)N[C@H](C(=O)NCC(=O)NC2CC2)CSCC(=O)N[C@@H](Cc2ccc(O)cc2)C(=O)N(C)[C@@H](C)C(=O)N[C@@H](CC(N)=O)C(=O)N2CCC[C@H]2C(=O)N[C@@H](CN)C(=O)N[C@@H](CC(C)C)C(=O)N2C[C@H](O)C[C@H]2C(=O)N[C@@H](Cc2c[nH]c3ccccc23)C(=O)NCC(=O)NC(Cc2c[nH]c3ccccc23)C(=O)N1C (stereo partly drawn) [Example 13091] ({CH2CO}-Y[NMeA]NP[Dap]L[Hyp]WG[ξW][NMeNle][NMeNle]LCG-NHcPr; thioether N-14) | 4 to 9.9
CCCC[C@H]1C(=O)N(C)[C@@H](CCCC)C(=O)N[C@@H](CC(C)C)C(=O)N[C@H](C(=O)NCC(=O)NC2CCC2)CSCC(=O)N[C@@H](Cc2ccc(O)cc2)C(=O)N(C)[C@@H](C)C(=O)N[C@@H](CC(N)=O)C(=O)N2CCC[C@H]2C(=O)N[C@@H](CN)C(=O)N[C@@H](CC(C)C)C(=O)N2C[C@H](O)C[C@H]2C(=O)N[C@@H](Cc2c[nH]c3ccccc23)C(=O)NCC(=O)N[C@@H](Cc2c[nH]c3ccccc23)C(=O)N1C [Example 13092] ({CH2CO}-Y[NMeA]NP[Dap]L[Hyp]WGW[NMeNle][NMeNle]LCG-NHcBu; thioether N-14) | 10 to 60
CCCC[C@H]1C(=O)N(C)[C@@H](CCCC)C(=O)N[C@@H](CC(C)C)C(=O)N[C@H](C(=O)NCC(=O)NCc2cccnc2)CSCC(=O)N[C@@H](Cc2ccc(O)cc2)C(=O)N(C)[C@@H](C)C(=O)N[C@@H](CC(N)=O)C(=O)N2CCC[C@H]2C(=O)N[C@@H](CN)C(=O)N[C@@H](CC(C)C)C(=O)N2C[C@H](O)C[C@H]2C(=O)N[C@@H](Cc2c[nH]c3ccccc23)C(=O)NCC(=O)NC(Cc2c[nH]c3ccccc23)C(=O)N1C (stereo partly drawn) [Example 13094] ({CH2CO}-Y[NMeA]NP[Dap]L[Hyp]WG[ξW][NMeNle][NMeNle]LCG-{NH(3-picolyl)}; thioether N-14) | 10 to 60

Second part, the compound after the results:

IC50 [nM] | Structure (SMILES)
10 to 60 | CCCC[C@H]1C(=O)N(C)[C@@H](CCCC)C(=O)N[C@@H](CC(C)C)C(=O)N[C@H](C(=O)NCC(=O)NCCO)CSCC(=O)N[C@@H](Cc2ccc(O)cc2)C(=O)N(C)[C@@H](C)C(=O)N[C@@H](CC(N)=O)C(=O)N2CCC[C@H]2C(=O)N[C@@H](CN)C(=O)N[C@@H](CC(C)C)C(=O)N2C[C@H](O)C[C@H]2C(=O)N[C@@H](Cc2c[nH]c3ccccc23)C(=O)NCC(=O)NC(Cc2c[nH]c3ccccc23)C(=O)N1C (stereo partly drawn) [Example 13095] ({CH2CO}-Y[NMeA]NP[Dap]L[Hyp]WG[ξW][NMeNle][NMeNle]LCG-NHCH2CH2OH; thioether N-14)
10 to 60 | C#CCNC(=O)CNC(=O)[C@@H]1CSCC(=O)N[C@@H](Cc2ccc(O)cc2)C(=O)N(C)[C@@H](C)C(=O)N[C@@H](CC(N)=O)C(=O)N2CCC[C@H]2C(=O)N[C@@H](CN)C(=O)N[C@@H](CC(C)C)C(=O)N2C[C@H](O)C[C@H]2C(=O)N[C@@H](Cc2c[nH]c3ccccc23)C(=O)NCC(=O)NC(Cc2c[nH]c3ccccc23)C(=O)N(C)[C@@H](CCCC)C(=O)N(C)[C@@H](CCCC)C(=O)N[C@@H](CC(C)C)C(=O)N1 (stereo partly drawn) [Example 13096] ({CH2CO}-Y[NMeA]NP[Dap]L[Hyp]WG[ξW][NMeNle][NMeNle]LCG-{NH(propargyl)}; thioether N-14)
10 to 60 | C=CCNC(=O)CNC(=O)[C@@H]1CSCC(=O)N[C@@H](Cc2ccc(O)cc2)C(=O)N(C)[C@@H](C)C(=O)N[C@@H](CC(N)=O)C(=O)N2CCC[C@H]2C(=O)N[C@@H](CN)C(=O)N[C@@H](CC(C)C)C(=O)N2C[C@H](O)C[C@H]2C(=O)N[C@@H](Cc2c[nH]c3ccccc23)C(=O)NCC(=O)NC(Cc2c[nH]c3ccccc23)C(=O)N(C)[C@@H](CCCC)C(=O)N(C)[C@@H](CCCC)C(=O)N[C@@H](CC(C)C)C(=O)N1 (stereo partly drawn) [Example 13097] ({CH2CO}-Y[NMeA]NP[Dap]L[Hyp]WG[ξW][NMeNle][NMeNle]LCG-NHAllyl; thioether N-14)
10 to 60 | CCCC[C@H]1C(=O)N(C)[C@@H](CCCC)C(=O)N[C@@H](CC(C)C)C(=O)N[C@H](C(=O)NCC(=O)NCCCN(C)C)CSCC(=O)N[C@@H](Cc2ccc(O)cc2)C(=O)N(C)[C@@H](C)C(=O)N[C@@H](CC(N)=O)C(=O)N2CCC[C@H]2C(=O)N[C@@H](CN)C(=O)N[C@@H](CC(C)C)C(=O)N2C[C@H](O)C[C@H]2C(=O)N[C@@H](Cc2c[nH]c3ccccc23)C(=O)NCC(=O)NC(Cc2c[nH]c3ccccc23)C(=O)N1C (stereo partly drawn) [Example 13098] ({CH2CO}-Y[NMeA]NP[Dap]L[Hyp]WG[ξW][NMeNle][NMeNle]LCG-{NH(CH2)3NMe2}; thioether N-14)
10 to 60 | CCCC[C@H]1C(=O)N(C)[C@@H](CCCC)C(=O)N[C@@H](CC(C)C)C(=O)N[C@H](C(=O)NCC(=O)NCCCn2ccnc2)CSCC(=O)N[C@@H](Cc2ccc(O)cc2)C(=O)N(C)[C@@H](C)C(=O)N[C@@H](CC(N)=O)C(=O)N2CCC[C@H]2C(=O)N[C@@H](CN)C(=O)N[C@@H](CC(C)C)C(=O)N2C[C@H](O)C[C@H]2C(=O)N[C@@H](Cc2c[nH]c3ccccc23)C(=O)NCC(=O)NC(Cc2c[nH]c3ccccc23)C(=O)N1C (stereo partly drawn) [Example 13099] ({CH2CO}-Y[NMeA]NP[Dap]L[Hyp]WG[ξW][NMeNle][NMeNle]LCG-X2; thioether N-14)
10 to 60 | CCCCNC(=O)CNC(=O)[C@@H]1CSCC(=O)N[C@@H](Cc2ccc(O)cc2)C(=O)N(C)[C@@H](C)C(=O)N[C@@H](CC(N)=O)C(=O)N2CCC[C@H]2C(=O)N[C@@H](CN)C(=O)N[C@@H](CC(C)C)C(=O)N2C[C@H](O)C[C@H]2C(=O)N[C@@H](Cc2c[nH]c3ccccc23)C(=O)NCC(=O)NC(Cc2c[nH]c3ccccc23)C(=O)N(C)[C@@H](CCCC)C(=O)N(C)[C@@H](CCCC)C(=O)N[C@@H](CC(C)C)C(=O)N1 (stereo partly drawn) [Example 13100] ({CH2CO}-Y[NMeA]NP[Dap]L[Hyp]WG[ξW][NMeNle][NMeNle]LCG-NHBu; thioether N-14)
